Data on 1 sequence can be found in patent US7271239B2, “D-isomers of antimicrobial peptide” (The Research Foundation of State University of New York, priority 2004, dated 2007).

Like-named read-outs stand apart in the source and are kept apart here. Where no end group is shown, it is not given here.

One series deals with C. albicans DIS. The series can be described thus: Killing assay in whole human saliva. Here is the method:
FIG. 1. Candidacidal activity of MUC7 12-mer-L, MUC7 12-mer-D, Hsn5 12-mer, and Magainin-II in whole human saliva (WHS). Each peptide at final concentration of 25, 50, and 100 μM was incubated with C. albicans (DIS isolate at 1×10^5 cells/ml) and 20 μl of clarified or unclarified saliva (SL; hatched bars), saliva containing Protease inhibitor cocktail (PIC) (SL+PIC; filled bars), or saliva containing ethylenediamine tetraacetic acid (EDTA) (SL+EDTA; clear bars) at 37° C. for 1.5 h. At the end of incubation, the samples were diluted 20-fold and aliquots plated on SDA. The colony forming units (CFU) were counted after 24 h of incubation. The loss of C. albicans viability was determined by the equation (1−CFU of the test group/CFU of the control group)×100%. The data represent three individual trials, and in each trial the sample was duplicated; the error bars represent standard deviation.
FIG. 4. […] Stimulated whole saliva was collected from 5 healthy subjects. Peptides (50 μM) were incubated with C. albicans cells (1×10^5) in the each individual saliva containing PIC (SL+PIC) at 37° C. for 1.5 hr and the loss of the cell viability was determined. Values represent the mean±S.D. (n=5).
Killing assays in saliva. Unclarified saliva (unstimulated whole saliva) was collected from five healthy individuals during the fasting. Clarified saliva was obtained by passing the unclarified saliva through the 0.2 μm pore size sterile syringe filter (VWR scientific products, West Chester, Pa.). Candidacidal activity assays were performed as described previously (4), except the phosphate buffer was substituted with saliva. […] Saliva without peptides was a blank control. After incubation at 37° C. for 1.5 h, the reactions were diluted 20-fold in PB and aliquots (50 μl, ˜120 cells) of each sample were plated on SDA. The plates were incubated at 37° C. for 1 day aerobically and the number of colony-forming units (CFUs) was counted. Percentage of killing was calculated as (1−amount of viable cells in the test group)/(amount of viable cells in the control group)×100%.

Another series has as its system HOK-16B cells. The series can be described thus: MTS cell viability assay. In kind it is cell-based, human. Particulars: 200 μM. Here is the method:
FIG. 6. Effect of peptides on viability of (A) HOK-16B cells and (B) KB cells. The toxic effect of the compounds on the cells was determined by calorimetric assay using a CellTiter 96 AQueous One Solution cell proliferation assay (MTS) kit, as described in the text. Briefly, the cells were grown to about 80% confluence, harvested, washed, resuspended in KGM, and dispensed into a 96-well microtiter plate. They were then exposed to different concentrations of peptides or amphotericin B at 37° C. and 5% CO2 for 1.5 h. MTS agent was then added to each well, and the cells were further incubated for 4 h. Absorbance at 490 nm was then measured using a microplate reader. MTS reduction is an indication of cell viability. The viability is expressed as relative absorbance (percentage of no-agent control). Data represent the average and standard deviation of results from two independent experiments.
Cell culture. The HOK-16B cell line (originated from primary normal human keratinocytes) was kindly provided by No-Hee Park, UCLA School of Dentistry. The KB cell line was obtained from the American Type Culture Collection (CLL-17). […]
MTS cell viability assay. The toxic effect of the compounds on the cells was determined by calorimetric assay using a CellTiter 96 AQueous One Solution cell proliferation assay (MTS) kit (Promega, Wis.). […] Absorbance at 490 nm was then measured using a microplate reader. […]
For orientation: Tetrazolium assays rely on reduction of a dye to a coloured formazan, in cell work by metabolically active cells.

For a further series, the system named is Erythrocytes. Particulars: determined previously (5), cited from earlier work.

On to GIGKFLHSAKKFGKAFVGEIMNS [Magainin-II], for which the “candidacidal activity (killing)” value in the series on C. albicans DIS (100 μM, clarified saliva, no PIC/EDTA) is listed as 0%. This sequence also registered a killing with C. albicans DIS (100 μM, unclarified saliva, no PIC/EDTA) of 0%. Also, the “percent loss of cell viability” value is given as 94.42^± % with C. albicans DIS (clarified saliva, PIC+ (Table 1)) and 0.00% with C. albicans DIS (clarified saliva, PIC− (Table 1)). For the same sequence, the “loss of HOK-16B cell viability” value in the series on HOK-16B cells is listed as “about 30%”. Moreover, the figures for the hemolysis with Erythrocytes (IGP buffer) and in the series on Erythrocytes (PBS) were 92% and 0%, respectively.
